Measured values taken from ChEMBL document CHEMBL4334523, “Enzymatic Preparation of 2'-5',3'-5'-Cyclic Dinucleotides, Their Binding Properties to Stimulator of Interferon Genes Adaptor Protein, and Structure/Activity Correlations” (J Med Chem, 2019).

What was measured:
Monocyte = test: Cytotoxicity against human PBMC-derived monocytes assessed as CD3-negative CD14 positive monocyte viability at 12.5 uM incubated for 16 hrs by Zombie-NIR staining-based flow cytometry relative to control; type: functional
[1] = biological target: Stimulator of interferon genes protein (Homo sapiens, UniProt Q86WV6, G230A/R293Q/R71H); test: Activation of recombinant human STING haplotype R71H/G230A/R293Q mutant expressed in 293T cells measured after 30 mins in presence of digitonin A by bright Glo-luciferase reporter gene assay; type: cell-based
Sequence of Stimulator of interferon genes protein (Homo sapiens, UniProt Q86WV6, G230A/R293Q/R71H) (Q86WV6 whole entry R71H/G230A/R293Q): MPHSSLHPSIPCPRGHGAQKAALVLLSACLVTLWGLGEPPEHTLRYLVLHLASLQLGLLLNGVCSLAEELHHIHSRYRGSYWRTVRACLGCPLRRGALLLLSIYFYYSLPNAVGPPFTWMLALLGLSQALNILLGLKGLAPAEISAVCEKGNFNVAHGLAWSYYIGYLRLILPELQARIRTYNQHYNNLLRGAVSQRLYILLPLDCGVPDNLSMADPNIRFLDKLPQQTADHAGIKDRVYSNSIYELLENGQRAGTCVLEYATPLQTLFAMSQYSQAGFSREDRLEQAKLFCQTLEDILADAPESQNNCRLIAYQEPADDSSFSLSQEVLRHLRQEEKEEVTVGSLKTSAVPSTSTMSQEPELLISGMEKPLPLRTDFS

[2] = biological target: T1, Stimulator of interferon genes protein (Homo sapiens, UniProt Q86WV6)
T1 sequence (Q86WV6 whole entry): as the sequence (Q86WV6 whole entry R71H/G230A/R293Q) above, with H71R, A230G, Q293R counted along it
Description: Binding affinity to recombinant human wild-type STING assessed as change in melting temperature at 150 uM by SYPRO orange dye based differential scanning fluorimetric method

[3] = biological target: Stimulator of interferon genes protein (Homo sapiens, UniProt Q86WV6, G230A/R293Q); test: Activation of recombinant human STING haplotype G230A/R293Q mutant expressed in 293T cells measured after 30 mins in presence of digitonin A by bright Glo-luciferase reporter gene assay; type: cell-based
Sequence of Stimulator of interferon genes protein (Homo sapiens, UniProt Q86WV6, G230A/R293Q) (Q86WV6 whole entry G230A/R293Q): as the sequence (Q86WV6 whole entry R71H/G230A/R293Q) above, with H71R counted along it

[4] = biological target: T1, Stimulator of interferon genes protein; test: Activation of recombinant human wild-type STING expressed in 293T cells measured after 30 mins in presence of digitonin A by bright Glo-luciferase reporter gene assay; type: cell-based
[5] = Cytotoxicity against human PBMC-derived CD3-positive T cells assessed as effect on cell viability at 12.5 uM incubated for 16 hrs by Zombie-NIR staining-based flow cytometry
cells = conditions: Homo sapiens, HEK-293T, 0.5 h
Description: Activation of recombinant human STING haplotype R232H mutant expressed in 293T cells measured after 30 mins in presence of digitonin A by bright Glo-luciferase reporter gene assay

[6] = biological target: T1, Stimulator of interferon genes protein; test: Activation of recombinant human wild-type STING expressed in 293T cells incubated for 7 hrs in absence of digitonin A by bright Glo-luciferase reporter gene assay; type: cell-based
[7] = biological target: Stimulator of interferon genes protein (Homo sapiens, UniProt Q86WV6, R293Q); test: Activation of recombinant human STING haplotype R293Q mutant expressed in 293T cells measured after 30 mins in presence of digitonin A by bright Glo-luciferase reporter gene assay; type: cell-based
Sequence of Stimulator of interferon genes protein (Homo sapiens, UniProt Q86WV6, R293Q) (Q86WV6 whole entry R293Q): as the sequence (Q86WV6 whole entry R71H/G230A/R293Q) above, with H71R, A230G counted along it

Homo sapiens = species: Homo sapiens; type: cell-based

Row | Structure (SMILES) | Activity (Monocyte) | EC50 [1] | ΔTm [2] | EC50 [3] | EC50 [4] | Activity [5] | EC50 (cells) | EC50 [6] | EC50 [7] | max activation (Homo sapiens)
1 | Nc1nc2c([C@@H]3O[C@@H]4COP(=O)(O)O[C@H]5[C@@H](O)[C@H](n6cnc7c(N)ncnc76)O[C@@H]5COP(=O)(O)O[C@@H]3[C@@H]4O)scc2c(=O)[nH]1 | 0.9% | 250 nM | 2.8 °C | 50 nM | 110 nM | Non-Toxic | 6000 nM | 241000 nM | 3000 nM | < 30%
2 | CSc1nc(N)nc2c1ncn2[C@@H]1O[C@@H]2COP(=O)(O)O[C@@H]3[C@H](O)[C@@H](COP(=O)(O)O[C@H]2[C@H]1O)O[C@H]3n1cnc2c(=O)[nH]c(N)nc21 | 4.8% | 480 nM | 3.5 °C | 240 nM | 300 nM | Non-Toxic | 27600 nM | > 300000 nM | 8500 nM | < 30%
3 | Nc1nc2c(ncn2[C@@H]2O[C@@H]3COP(=O)(O)O[C@H]4[C@@H](O)[C@H](n5cnc6c(=O)[nH]cnc65)O[C@@H]4COP(=O)(O)O[C@@H]2[C@@H]3O)c(=O)[nH]1 | 17% | 300 nM | 8.8 °C | 140 nM | 50 nM | Non-Toxic | 2100 nM | 149000 nM | 2200 nM | < 30%
4 | Nc1nc2c(ncn2[C@@H]2O[C@@H]3COP(=O)(O)O[C@H]4[C@@H](F)[C@H](n5cnc6c(N)nc(F)nc65)O[C@@H]4COP(=O)(O)O[C@@H]2[C@@H]3O)c(=O)[nH]1 | 0.4% | 80 nM | 14.7 °C | 30 nM | 20 nM | Non-Toxic | 70 nM | 11000 nM | 80 nM | < 30%
5 | NC(=O)c1ncn([C@@H]2O[C@@H]3COP(=O)(O)O[C@H]4[C@@H](O)[C@H](n5cnc6c(N)ncnc65)O[C@@H]4COP(=O)(O)O[C@@H]2[C@@H]3O)c1N | 87% | 400 nM | 0.6 °C | 420 nM | 830 nM | Non-Toxic | > 45000 nM | > 300000 nM | 47200 nM | < 30%
6 | Nc1nc2c(ncn2[C@@H]2O[C@@H]3COP(=O)(O)O[C@H]4C[C@H](n5cnc6c(N)nc(F)nc65)O[C@@H]4COP(=O)(O)O[C@@H]2[C@@H]3F)c(=O)[nH]1 | 0.2% | 100 nM | 10.7 °C | 170 nM | 50 nM | Non-Toxic | 2000 nM | > 300000 nM | 700 nM | < 30%
7 | Nc1nc2c(ncn2[C@@H]2O[C@@H]3COP(=O)(O)O[C@H]4[C@H](O)[C@H](n5cnc6c(N)nc(F)nc65)O[C@@H]4COP(=O)(O)O[C@@H]2[C@@H]3O)c(=O)[nH]1 | 3% | 100 nM | 12.3 °C | 60 nM | 200 nM | Non-Toxic | 6400 nM | 187000 nM | 600 nM | < 30%
8 | Nc1nc2c(ccn2[C@@H]2O[C@@H]3COP(=O)(O)O[C@H]4[C@@H](O)[C@H](n5cnc6c(N)ncnc65)O[C@@H]4COP(=O)(O)O[C@@H]2[C@@H]3O)c(=O)[nH]1 | 0.9% | 100 nM | 6.6 °C | 60 nM | 40 nM | Non-Toxic | 3500 nM | 40400 nM | 1100 nM | < 30%
9 | Nc1ncc2ncn([C@@H]3O[C@@H]4COP(=O)(O)O[C@@H]5[C@H](O)[C@@H](COP(=O)(O)O[C@H]4[C@H]3O)O[C@H]5n3cnc4c(=O)[nH]c(N)nc43)c2n1 | 0.6% | 40 nM | 9.2 °C | 40 nM | 20 nM | Non-Toxic | 1600 nM | 53900 nM | 700 nM | < 30%
10 | Nc1nc2c(ncn2[C@@H]2O[C@@H]3COP(=O)(O)O[C@H]4[C@@H](O)[C@H](n5nnc6c(N)ncnc65)O[C@@H]4COP(=O)(O)O[C@@H]2[C@@H]3O)c(=O)[nH]1 | 2.3% | 310 nM | 3.9 °C | 210 nM | 230 nM | Non-Toxic | 34200 nM | > 300000 nM | 5720 nM | < 30%
11 | Nc1nc2c(ncn2[C@@H]2O[C@@H]3COP(=O)(O)O[C@H]4[C@@H](N)[C@H](n5cnc6c(N)ncnc65)O[C@@H]4COP(=O)(O)O[C@@H]2[C@@H]3O)c(=O)[nH]1 | 3% | 30 nM | 9.4 °C | 20 nM | 20 nM | Non-Toxic | 1400 nM | 108000 nM | 240 nM | < 30%
12 | Nc1nc2c(ncn2[C@@H]2O[C@@H]3COP(=O)(O)O[C@H]4[C@@H](O)[C@H](n5cnc6c(=S)[nH]cnc65)O[C@@H]4COP(=O)(O)O[C@@H]2[C@@H]3O)c(=O)[nH]1 | 10% | 200 nM | 7.3 °C | 150 nM | 300 nM | Non-Toxic | 1700 nM | 182000 nM | 8300 nM | < 30%
13 | CNc1ncnc2c1ncn2[C@@H]1O[C@@H]2COP(=O)(O)O[C@@H]3[C@H](O)[C@@H](COP(=O)(O)O[C@H]2[C@H]1O)O[C@H]3n1cnc2c(=O)[nH]c(N)nc21 | 0.8% | 60 nM | 9 °C | 60 nM | 20 nM | Non-Toxic | 700 nM | 63700 nM | 1200 nM | < 30%
14 | CSc1ncnc2c1ncn2[C@@H]1O[C@@H]2COP(=O)(O)O[C@@H]3[C@H](O)[C@@H](COP(=O)(O)O[C@H]2[C@H]1O)O[C@H]3n1cnc2c(=O)[nH]c(N)nc21 | 0.4% | 60 nM | 8.3 °C | 60 nM | 10 nM | Non-Toxic | 2300 nM | 13300 nM | 1230 nM | < 30%
15 | Cn1c(N)nc2c(ncn2[C@@H]2O[C@@H]3COP(=O)(O)O[C@H]4[C@@H](O)[C@H](n5cnc6c(N)ncnc65)O[C@@H]4COP(=O)(O)O[C@@H]2[C@@H]3O)c1=O | 2% | 40 nM | 9 °C | 40 nM | 20 nM | Non-Toxic | 900 nM | 40000 nM | 780 nM | < 30%
16 | Nc1nc2c(ncn2[C@@H]2O[C@@H]3COP(=O)(O)O[C@H]4[C@@H](O)[C@H](n5cnc6c(O)nc(O)nc65)O[C@@H]4COP(=O)(O)O[C@@H]2[C@@H]3O)c(=O)[nH]1 | 45% | 1700 nM | 2.4 °C | 2000 nM | 1800 nM | Non-Toxic | 20900 nM | > 300000 nM | 32800 nM | < 30%
